Measured values taken from article PMC4042160, “In silico, in vitro and cellular analysis with a kinome-wide inhibitor panel correlates cellular LRRK2 dephosphorylation to inhibitor activity on LRRK2” (Frontiers in Molecular Neuroscience, 2014).

What was measured:
[1] = biological target: T1, GST-tagged truncated LRRK2 containing residues 970 to 2527 (Homo sapiens, UniProt Q5S007); assay: In vitro LRRKtide peptide-substrate kinase assay, single dose testing (10 μM); format: biochemical; conditions: for % LRRKtide phosphorylation relative to solvent: LRRKtide assay @ 10 μM inhibitor, GST-LRRK2 970-2527, 10 μM ATP, mean, N = 3, solvent control = 100%
T1 construct: GST-tagged truncated LRRK2 containing residues 970 to 2527 (Life Technologies); purchased Life Technologies

LRRK2 phospho-Ser935 = biological target: T2, LRRK2 phospho-Ser935 (Homo sapiens, UniProt Q5S007); assay: Cellular LRRK2 phosphoserine 935 dephosphorylation spotblot assay in SH-SY5Y cells stably expressing 3xFlag-LRRK2; format: cell-based; conditions: for Phosphorylation level relative to solvent (%) (cellular pS935 assay): @ 5 μM for 2 h, SH-SY5Y stably expressing LRRK2, pS935/total LRRK2
T2 construct: expressed in transfected cells
T2 sequence (Q5S007 whole entry): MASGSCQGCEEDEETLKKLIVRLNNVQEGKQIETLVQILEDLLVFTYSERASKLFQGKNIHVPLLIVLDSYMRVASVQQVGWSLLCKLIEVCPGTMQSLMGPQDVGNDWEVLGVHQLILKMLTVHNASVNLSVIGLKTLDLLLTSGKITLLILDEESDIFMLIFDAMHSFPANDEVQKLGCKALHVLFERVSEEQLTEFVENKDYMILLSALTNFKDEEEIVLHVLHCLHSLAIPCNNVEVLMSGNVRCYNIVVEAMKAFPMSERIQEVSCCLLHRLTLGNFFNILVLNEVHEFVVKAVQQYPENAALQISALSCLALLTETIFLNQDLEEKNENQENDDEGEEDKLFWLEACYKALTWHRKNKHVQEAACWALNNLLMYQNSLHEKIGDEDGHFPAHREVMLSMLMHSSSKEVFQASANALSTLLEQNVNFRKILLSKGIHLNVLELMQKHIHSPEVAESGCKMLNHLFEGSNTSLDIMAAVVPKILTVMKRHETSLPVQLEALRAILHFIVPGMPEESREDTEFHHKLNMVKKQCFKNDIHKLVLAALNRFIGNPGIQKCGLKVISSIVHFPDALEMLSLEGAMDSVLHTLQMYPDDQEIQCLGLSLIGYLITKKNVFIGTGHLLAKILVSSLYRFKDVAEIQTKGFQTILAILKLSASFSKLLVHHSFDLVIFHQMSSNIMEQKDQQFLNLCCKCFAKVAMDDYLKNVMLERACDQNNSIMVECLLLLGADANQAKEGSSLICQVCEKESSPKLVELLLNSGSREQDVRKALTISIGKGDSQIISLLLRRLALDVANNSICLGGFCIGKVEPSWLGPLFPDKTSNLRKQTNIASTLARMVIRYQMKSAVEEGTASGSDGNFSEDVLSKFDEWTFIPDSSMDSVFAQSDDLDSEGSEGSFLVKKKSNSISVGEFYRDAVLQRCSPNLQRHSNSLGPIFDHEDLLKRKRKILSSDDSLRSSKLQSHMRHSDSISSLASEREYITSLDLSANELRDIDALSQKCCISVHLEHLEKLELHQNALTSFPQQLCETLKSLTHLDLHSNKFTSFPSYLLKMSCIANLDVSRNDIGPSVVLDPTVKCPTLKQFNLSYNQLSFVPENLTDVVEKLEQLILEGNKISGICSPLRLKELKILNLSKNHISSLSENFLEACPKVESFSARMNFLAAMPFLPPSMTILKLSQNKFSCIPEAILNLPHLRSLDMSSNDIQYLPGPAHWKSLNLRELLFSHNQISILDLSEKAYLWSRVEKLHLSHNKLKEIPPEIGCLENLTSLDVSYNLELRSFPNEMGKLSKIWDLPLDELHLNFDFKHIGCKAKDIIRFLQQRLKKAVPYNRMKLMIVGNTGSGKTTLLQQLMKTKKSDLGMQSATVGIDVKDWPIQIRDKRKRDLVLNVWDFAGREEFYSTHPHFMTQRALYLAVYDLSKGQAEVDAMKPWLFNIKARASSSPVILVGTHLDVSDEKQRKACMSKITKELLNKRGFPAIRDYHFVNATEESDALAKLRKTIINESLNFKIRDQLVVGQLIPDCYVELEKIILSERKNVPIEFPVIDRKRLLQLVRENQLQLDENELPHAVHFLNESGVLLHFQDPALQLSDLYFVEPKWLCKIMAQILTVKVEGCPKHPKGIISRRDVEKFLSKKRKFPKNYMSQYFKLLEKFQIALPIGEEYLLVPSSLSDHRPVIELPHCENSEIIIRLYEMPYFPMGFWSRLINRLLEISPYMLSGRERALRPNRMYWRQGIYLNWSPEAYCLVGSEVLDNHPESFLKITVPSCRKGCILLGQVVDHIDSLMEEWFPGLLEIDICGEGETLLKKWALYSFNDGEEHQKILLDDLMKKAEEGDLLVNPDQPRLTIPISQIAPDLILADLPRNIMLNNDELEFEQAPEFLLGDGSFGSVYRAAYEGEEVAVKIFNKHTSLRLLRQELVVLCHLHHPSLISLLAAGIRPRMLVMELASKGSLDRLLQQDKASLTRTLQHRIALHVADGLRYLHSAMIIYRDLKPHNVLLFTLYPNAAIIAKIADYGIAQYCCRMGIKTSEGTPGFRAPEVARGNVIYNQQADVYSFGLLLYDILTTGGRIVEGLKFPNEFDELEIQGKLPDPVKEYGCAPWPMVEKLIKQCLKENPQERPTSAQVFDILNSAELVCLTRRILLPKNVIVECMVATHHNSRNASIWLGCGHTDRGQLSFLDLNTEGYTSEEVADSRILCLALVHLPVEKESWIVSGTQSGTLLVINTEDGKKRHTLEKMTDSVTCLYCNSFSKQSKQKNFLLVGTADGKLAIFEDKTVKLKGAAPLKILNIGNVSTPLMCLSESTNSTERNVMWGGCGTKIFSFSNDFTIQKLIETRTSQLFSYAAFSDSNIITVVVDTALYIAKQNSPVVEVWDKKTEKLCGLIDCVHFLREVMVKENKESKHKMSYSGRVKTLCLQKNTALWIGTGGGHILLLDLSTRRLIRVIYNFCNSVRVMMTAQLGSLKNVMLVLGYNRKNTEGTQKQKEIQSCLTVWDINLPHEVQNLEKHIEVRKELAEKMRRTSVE

T1 sequence (Q5S007 970-2527): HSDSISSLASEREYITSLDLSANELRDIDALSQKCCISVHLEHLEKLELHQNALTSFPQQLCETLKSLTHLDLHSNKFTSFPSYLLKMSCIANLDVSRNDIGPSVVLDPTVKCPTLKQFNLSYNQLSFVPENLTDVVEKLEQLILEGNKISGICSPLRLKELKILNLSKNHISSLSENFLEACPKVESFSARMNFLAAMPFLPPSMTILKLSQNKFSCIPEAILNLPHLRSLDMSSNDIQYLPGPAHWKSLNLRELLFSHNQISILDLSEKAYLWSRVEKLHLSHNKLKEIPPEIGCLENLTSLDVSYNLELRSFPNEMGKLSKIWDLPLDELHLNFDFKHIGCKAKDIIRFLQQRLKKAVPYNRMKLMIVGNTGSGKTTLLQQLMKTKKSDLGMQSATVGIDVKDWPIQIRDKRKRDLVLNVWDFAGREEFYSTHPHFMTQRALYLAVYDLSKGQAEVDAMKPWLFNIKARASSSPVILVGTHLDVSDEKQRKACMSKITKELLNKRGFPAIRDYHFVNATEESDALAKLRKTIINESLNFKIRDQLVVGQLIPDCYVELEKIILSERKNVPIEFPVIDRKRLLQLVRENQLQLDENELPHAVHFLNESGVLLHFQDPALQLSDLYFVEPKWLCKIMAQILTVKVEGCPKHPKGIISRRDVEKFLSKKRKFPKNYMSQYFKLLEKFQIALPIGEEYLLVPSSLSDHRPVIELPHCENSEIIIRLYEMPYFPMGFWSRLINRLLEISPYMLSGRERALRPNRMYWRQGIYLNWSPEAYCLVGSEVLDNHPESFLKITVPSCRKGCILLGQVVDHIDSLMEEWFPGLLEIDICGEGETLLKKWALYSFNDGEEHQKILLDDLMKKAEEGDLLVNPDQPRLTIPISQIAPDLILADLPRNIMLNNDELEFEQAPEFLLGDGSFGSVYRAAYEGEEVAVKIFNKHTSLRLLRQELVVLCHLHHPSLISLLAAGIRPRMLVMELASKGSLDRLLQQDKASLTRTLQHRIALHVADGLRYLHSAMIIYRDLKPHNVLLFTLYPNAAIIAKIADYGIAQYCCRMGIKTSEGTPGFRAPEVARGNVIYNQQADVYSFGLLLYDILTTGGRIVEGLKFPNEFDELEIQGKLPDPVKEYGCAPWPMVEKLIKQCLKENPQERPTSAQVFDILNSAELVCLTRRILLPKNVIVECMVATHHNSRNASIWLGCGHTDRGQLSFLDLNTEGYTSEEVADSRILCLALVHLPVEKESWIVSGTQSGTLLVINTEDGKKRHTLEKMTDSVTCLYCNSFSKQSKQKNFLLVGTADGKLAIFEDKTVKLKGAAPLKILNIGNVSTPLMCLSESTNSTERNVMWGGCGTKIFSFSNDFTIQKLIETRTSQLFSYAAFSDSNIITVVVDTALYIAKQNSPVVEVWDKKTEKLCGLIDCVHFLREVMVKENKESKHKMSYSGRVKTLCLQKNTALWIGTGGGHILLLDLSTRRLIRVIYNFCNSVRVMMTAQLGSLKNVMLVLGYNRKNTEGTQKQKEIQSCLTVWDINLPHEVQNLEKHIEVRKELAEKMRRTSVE

Structure (SMILES) | % LRRKtide phosphorylation relative to solvent [1] [%] | Phosphorylation level relative to solvent (%) (cellular pS935 assay) (LRRK2 phospho-Ser935) | activity on LRRK2 kinase activity in vitro (in words) ([1]; no activity at 10 μM) | dephosphorylation of LRRK2 (Ser935) (LRRK2 phospho-Ser935; 5 μM, 2 h, SH-SY5Y)
CCCNC(=O)Nc1ccc(Oc2ncnc3cc(OC)c(OC)cc23)cc1Cl [KRN63] | 68.07 | 62.48 |  | 
O=C1Cc2c([nH]c3ccc(Br)cc23)-c2ccccc2N1 [Kenpaullone] | 47.16 | 94.10 |  | 
O=c1cc(N2CCOCC2)oc2c(-c3ccccc3)cccc12 [LY 294002] | 90.73 | 74.17 |  | 
O=c1cc(N2CCNCC2)oc2c(-c3ccccc3)cccc12 [LY 303511] | 107.82 | 47.60 | inactive | ~ 50%
Nc1ncnc2c1c(-c1ccc(Oc3ccccc3)cc1)cn2C1CCCC1 [Lck inhibitor] | 15.36 | 61.54 |  | 
N#C/C(=C(/N)Sc1ccc(N)cc1)c1ccccc1C(F)(F)F [MEK 1/2 inhibitor] | 61.26 | 117.92 |  | 
O=C1C(Cl)=C(N2C(=O)CCC2=O)C(=O)c2ccccc21 [MEK inhibitor II] | 21.13 | 108.79 |  | 
N#C/C(=C(/N)SC1C=CC=CC1)c1cccc(C(O)c2ccncc2)c1 (centres unmarked) [MEK inhibitor I] | 124.71 | 100.55 |  | 
O=C(CCCc1ccc(-c2ccccc2F)cc1)Nc1ccc(O)cc1 [MK2a inhibitor] | 123.21 | 60.73 |  | 
Nc1ncnc2n[nH]c(Nc3ccc(F)cc3)c12 [MNK1 inhibitor] | 12.59 | 70.32 |  | 
COc1cccc(-c2cc(=O)c3ccccc3o2)c1N [PD98059] | 92.53 | 106.55 |  | 
CNc1cc2c(Nc3cccc(Br)c3)ncnc2cn1 [PD 158780] | 6.06 | 80.85 |  | 
COc1cc2nccc(Oc3ccc(NC(=S)NC(=O)c4ccccc4C)cc3)c2cc1OC [PDGF RTK inhibitor] | 34.30 | 77.68 |  | 
CCCC(=O)Oc1ccc2[nH]c(C(=O)c3cc4ccccc4[nH]3)cc2c1 [PDGF receptor tyrosine kinase inhibitor II] | 93.77 | 65.41 |  | 
COc1cc2c(cc1OC)-c1[nH]nc(Nc3cccc(F)c3)c1C2 [PDGF receptor tyrosine kinase inhibitor IV] | 23.12 | 57.30 |  | 
O=C1NC(=O)/C(=C/c2ccc3nccnc3c2)S1 [PI 3-Kg inhibitor] | 62.51 | 79.50 |  | 
Oc1cccc(-c2nc(N3CCOCC3)c3oc4ncccc4c3n2)c1 [PI-103] | 88.58 | 71.34 |  | 
O=C1NC(=O)C(c2cn(CCCn3ccnc3)c3ccccc23)=C1Nc1ccccc1 [PKCb inhibitor] | 3.56 | 86.12 |  | 
O=C1NC(=O)c2cc(Nc3ccc(F)cc3)c(Nc3ccc(F)cc3)cc21 [PKCbII/EGFR inhibitor] | 67.41 | 56.68 |  | 
O=C1Nc2ccc(Cl)cc2/C1=C/c1cc(Cl)c(O)c(Cl)c1 [PKR inhibitor, negative control] | 1.07 | 72.69 |  | 
CC(C)(C)n1nc(Cc2cccc3ccccc23)c2c(N)ncnc21 [PP1 analog II, 1NM-PP1, 1NM-PP1] | 44.14 | 68.59 |  | 

Structure (SMILES) | % LRRKtide phosphorylation relative to solvent [1] [%] | Phosphorylation level relative to solvent (%) (cellular pS935 assay) (LRRK2 phospho-Ser935) | activity on LRRK2 kinase activity in vitro (in words) ([1]; no activity at 10 μM) | dephosphorylation of LRRK2 (Ser935) (LRRK2 phospho-Ser935; 5 μM, 2 h, SH-SY5Y)
Nc1ncnc2c1cnn2-c1ccccc1 [PP3] | 68.38 | 84.67 |  | 
C[C@@H](N)[C@H]1CC[C@H](C(=O)Nc2ccncc2)CC1 [ROCK inhibitor, Y-27632, Y-27632] | 10.36 | 69.28 |  | 
CO[C@H]1C[C@@H]2CC[C@@H](C)[C@@](O)(O2)C(=O)C(=O)N2CCCC[C@H]2C(=O)O[C@H]([C@H](C)C[C@@H]2CC[C@@H](O)[C@H](OC)C2)CC(=O)[C@H](C)/C=C(\C)[C@@H](O)[C@@H](OC)C(=O)[C@H](C)C[C@H](C)/C=C/C=C/C=C/1C [Rapamycin] | 101.20 | 65.24 |  | 
c1ccc2c(-c3ccncc3)c[nH]c2c1 [Rho kinase inhibitor III, rockout, rockout] | 32.15 | 63.04 |  | 
Cc1cncc2cccc(S(=O)(=O)N3CCCN(C(=O)CN)C[C@@H]3C)c12 [Rho kinase inhibitor IV] | 10.29 | 59.98 |  | 
Oc1ccc(-c2nc(-c3ccncc3)c(-c3ccc(F)cc3)[nH]2)cc1 [SB 202190] | 45.07 | 88.12 |  | 
CCc1[nH]c(-c2ccc(OC)cc2)nc1-c1ccncc1 [SB 202474] | 47.64 | 112.24 |  | 
C[S+]([O-])c1ccc(-c2nc(-c3ccncc3)c(-c3ccc(F)cc3)[nH]2)cc1 (centres unmarked) [SB 203580] | 100.48 | 90.32 |  | 
O=C1NC(=O)c2c1c1c3ccccc3n3c1c1c2c2ccccc2n1C1CCC3O1 [SB 218078] | 1.94 | 89.51 |  | 
Nc1nccc(-c2c(-c3ccc(F)cc3)ncn2C2CCNCC2)n1 [SB 220025] | 73.68 | 70.97 |  | 
Cc1nc(-c2ccccc2)c(-c2ccncc2)o1 [SC-68376] | 48.07 | 104.03 |  | 
Fc1ccc(-c2nc3n(c2-c2ccncc2)CCS3)cc1 [SKF-86002] | 94.81 | 121.09 |  | 
O=C(O)c1ccc2c3c1cccc3c(=O)n1c3ccccc3nc21 [STO-609] | 15.01 | 121.51 |  | 
Oc1ccc(Nc2nc(-c3ccc(Cl)cc3)cs2)cc1 [Sphingosine kinase inhibitor] | 106.21 | 144.00 |  | 
O=[N+]([O-])/C=C/c1ccc2c(c1)OCO2 [Syk inhibitor III] | 82.95 | 68.01 |  | 
NCCNc1ncc(C(N)=O)c(Nc2cccc(C(F)(F)F)c2)n1 [Syk inhibitor II] | 3.50 | 76.71 |  | 
Cc1cccc(-c2[nH]c(C(C)(C)C)nc2-c2ccc3c(c2)OCO3)n1 [TGF-b RI inhibitor III] | 104.37 | 57.95 |  | 
c1ccc(-c2[nH]ncc2-c2ccnc3ccccc23)nc1 [TGF-b RI kinase inhibitor] | 47.94 | 71.73 |  | 
N#Cc1cnc2cnc(NCc3cccnc3)cc2c1Nc1ccc(F)c(Cl)c1 [Tpl2 kinase inhibitor] | 55.04 | 102.54 |  | 
COc1ccc(-c2cnc3c(-c4ccsc4)cnn3c2)cc1 [VEGF receptor 2 kinase inhibitor IV] | 77.83 | 48.48 |  | 
O=C(Nc1ccc(Cl)cc1)c1ccccc1NCc1ccncc1 [VEGF receptor tyrosine kinase inhibitor II] | 91.34 | 65.97 |  | 
